Key:
[1] = system: C. auris [DSM 21092] biofilm; assay: Effects on C. auris biofilms of various ages (2 h, 12 h, 24 h), crystal violet; type: cell-based, Candida auris
Description: The turbidity of C. auris [DSM 21092] dispersion was measured at 280 nm and diluted to the turbidity of a 0.5 McFarland standard. C. auris was cultured in RPMI 1640 medium supplemented with […] MOPS (37 °C, 150 rpm, 2 h, 12 h, 24 h) in 96-well non-tissue microtiter plates (Falcon no. 351172, Thermo Fisher Scientific). After incubation, C. auris biofilms of various ages (2 h, 12 h, 24 h) were washed once by PBS buffer and treated (37 °C, 150 rpm, 24 h) with serial diluted Rub C (250–0.02 μg/mL) in fresh RPMI 1640 medium supplemented with […] MOPS. Samples of each time point were further processed and evaluated by a microtiter plate reader, as described above.

[2] = system: preformed S. aureus biofilm; assay: Dispersal effect on preformed S. aureus biofilm; type: cell-based, Staphylococcus aureus; settings: 250 µg/mL
Description: compounds (250–2 μg/mL) in CASO with 4% glucose broth. The inhibition of biofilm formation was evaluated by staining with 150 μL of 0.1% crystal violet (CV; Thermo Fisher) following previously established protocols. In the next step, the supernatant of the 96-well plate was discarded and the wells were rinsed once with PBS buffer. The remaining biofilms were stained at room temperature for 15 min, rinsed three times with PBS buffer, and finally dissolved in 150 μL ethanol (95%). The absorbance of the resulting solution at 530 nm was quantified using a plate reader (Synergy 2, BioTek). Methanol (2.5%) and microporenic acid A (MAA) (250–2 μg/mL) were used as negative and positive controls. Standard deviations (SD) of two repeats with duplicates were 10% or less. […]
Table S2: Selected azaphilones were tested against the formation of biofilm of S. aureus, P. aeruginosa as well as C. auris and dispersal effect on preformed biofilm of S. aureus compared to solvent control (= 0%), respectively. SDs are shown as ±SD.
Compounds Strains Concentrations [µg/mL] […]

SMILES	biofilm attachment compared to solvent control (=0%) ([1]; 2 h old C. auris biofilm, 2 µg/mL)	biofilm attachment compared to solvent control (=0%) ([1]; 2 h old C. auris biofilm, 3.9 µg/mL)	biofilm attachment compared to solvent control (=0%) ([1]; 2 h old C. auris biofilm, 7.8 µg/mL)	biofilm attachment compared to solvent control (=0%) ([1]; 2 h old C. auris biofilm, 15.6 µg/mL)	biofilm attachment compared to solvent control (=0%) ([1]; 2 h old C. auris biofilm, 31.3 µg/mL)	biofilm attachment compared to solvent control (=0%) ([1]; 2 h old C. auris biofilm, 62.5 µg/mL)	biofilm attachment compared to solvent control (=0%) ([1]; 12 h old C. auris biofilm, 2 µg/mL)	biofilm attachment compared to solvent control (=0%) ([1]; 12 h old C. auris biofilm, 3.9 µg/mL)	biofilm attachment compared to solvent control (=0%) ([1]; 12 h old C. auris biofilm, 7.8 µg/mL)	biofilm attachment compared to solvent control (=0%) ([1]; 12 h old C. auris biofilm, 15.6 µg/mL)	biofilm attachment compared to solvent control (=0%) ([1]; 12 h old C. auris biofilm, 31.3 µg/mL)	biofilm attachment compared to solvent control (=0%) ([1]; 12 h old C. auris biofilm, 62.5 µg/mL)	biofilm attachment compared to solvent control (=0%) ([1]; 24 h old C. auris biofilm, 2 µg/mL)	biofilm attachment compared to solvent control (=0%) ([1]; 24 h old C. auris biofilm, 3.9 µg/mL)	biofilm attachment compared to solvent control (=0%) ([1]; 24 h old C. auris biofilm, 7.8 µg/mL)	biofilm attachment compared to solvent control (=0%) ([1]; 24 h old C. auris biofilm, 15.6 µg/mL)	biofilm attachment compared to solvent control (=0%) ([1]; 24 h old C. auris biofilm, 31.3 µg/mL)	biofilm attachment compared to solvent control (=0%) ([1]; 24 h old C. auris biofilm, 62.5 µg/mL)	dispersal effect on preformed biofilm of S. aureus compared to solvent control (= 0%) [2]
C[C@@H]1[C@H](O)[C@@H](C)/C=C/C=C/CC/C=C/C=C/C=C/C=C/C(O[C@H]2O[C@H](C)[C@@H](O)[C@H](N)[C@@H]2O)CC2O[C@](O)(CC(O)C(O)CCC(O)CC(O)CC(O)CC(=O)O[C@H]1C)CC(O)C2C(=O)O (stereo partly shown) [Nystatin, nystatin]	84 ±25%	39 ±10%	58 ±16%	53 ±10%	50 ±10%	47 ±8%	96 ±12%	64 ±12%	49 ±10%	43 ±6%	41 ±9%	45 ±8%	93 ±28%	48 ±2%	51 ±9%	49 ±5%	50 ±10%	46 ±5%	–
CC(=O)OC/C=C/C1=CC2=C(CO1)C(=O)[C@@](C)(OC(=O)c1c(C)cc(O)cc1O)C(=O)/C2=C\C=C\C1=CC2=C(CO1)C(=O)[C@@](C)(OC(=O)c1c(C)cc(O)cc1O)[C@@H](O)C2 [Rut B, rutilin B]	–	–	–	–	–	–	–	–	–	–	–	–	–	–	–	–	–	–	51 ±8%

From article PMC10381533, “Inhibitory Effects of the Fungal Pigment Rubiginosin C on Hyphal and Biofilm Formation in Candida albicans and Candida auris” (Journal of Fungi, 2023)
